PubChem BioAssay (NCI)
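In this assay, cells in 96-well plates receive the compound at five concentrations for 48 hours. Endpoints are linearly interpolated between the surrounding concentrations. Abbreviation: GI50, concentration required for 50% inhibition of growth. Definition used: TGI = concentration required for complete inhibition of growth.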

Columns and labels:
Experiment in all cases: growth of human tumour cells (NCI), 48 h; in the data active = GI50 below about 0.43 µM; inactive = the rest
OVCAR-3 ovarian = tested on: OVCAR-3 ovarian
HOP-92 NSCLC = tested on: HOP-92 NSCLC
CCRF-CEM leukemia = tested on: CCRF-CEM leukemia
SW-620 colon = tested on: SW-620 colon
NCI-H460 lung = tested on: NCI-H460 lung
A498 renal = tested on: A498 renal
BT-549 breast = tested on: BT-549 breast
HS 578T breast = tested on: HS 578T breast
TK-10 renal = tested on: TK-10 renal
RXF 393 renal = tested on: RXF 393 renal
NCI-H226 lung = tested on: NCI-H226 lung
NCI-H522 lung = tested on: NCI-H522 lung
NCI/ADR-RES ovarian = tested on: NCI/ADR-RES ovarian
U251 CNS = tested on: U251 CNS
PC-3 prostate = tested on: PC-3 prostate
K-562 leukemia = tested on: K-562 leukemia
SR leukemia = tested on: SR leukemia
SF-295 CNS = tested on: SF-295 CNS
HCC-2998 colon = tested on: HCC-2998 colon
MDA-MB-435 = tested on: MDA-MB-435
OVCAR-4 ovarian = tested on: OVCAR-4 ovarian
A549 NSCLC = tested on: A549 NSCLC
HCT-15 colon = tested on: HCT-15 colon
UO-31 renal = tested on: UO-31 renal
EKVX NSCLC = tested on: EKVX NSCLC
LOX IMVI melanoma = tested on: LOX IMVI melanoma
NCI-H23 lung = tested on: NCI-H23 lung
T-47D breast = tested on: T-47D breast
786-0 renal = tested on: 786-0 renal
KM12 colon = tested on: KM12 colon
ACHN renal = tested on: ACHN renal
SK-MEL-5 melanoma = tested on: SK-MEL-5 melanoma
HCT-116 colon = tested on: HCT-116 colon
SK-OV-3 ovarian = tested on: SK-OV-3 ovarian
UACC-257 melanoma = tested on: UACC-257 melanoma
MDA-MB-231 breast = tested on: MDA-MB-231 breast
UACC-62 melanoma = tested on: UACC-62 melanoma
MOLT-4 leukemia = tested on: MOLT-4 leukemia
SF-539 CNS = tested on: SF-539 CNS
MCF7 breast = tested on: MCF7 breast
SK-MEL-28 melanoma = tested on: SK-MEL-28 melanoma
HL-60(TB) leukemia = tested on: HL-60(TB) leukemia
COLO 205 colon = tested on: COLO 205 colon
OVCAR-8 ovarian = tested on: OVCAR-8 ovarian
HOP-62 NSCLC = tested on: HOP-62 NSCLC
MALME-3M melanoma = tested on: MALME-3M melanoma
SK-MEL-2 melanoma = tested on: SK-MEL-2 melanoma
SN12C renal = tested on: SN12C renal
CAKI-1 renal = tested on: CAKI-1 renal
RPMI-8226 leukemia = tested on: RPMI-8226 leukemia
SNB-75 CNS = tested on: SNB-75 CNS
SNB-19 CNS = tested on: SNB-19 CNS
SF-268 CNS = tested on: SF-268 CNS
IGROV1 ovarian = tested on: IGROV1 ovarian
HT29 colon = tested on: HT29 colon
OVCAR-5 ovarian = tested on: OVCAR-5 ovarian
DU-145 prostate = tested on: DU-145 prostate

O=c1cc(NCC(O)CN2CCCC2)n(Cc2ccccc2)c(=O)n1Cc1ccccc1 (centres undefined)
65.8 µM: TGI (MDA-MB-435)
84.1 µM: TGI (PC-3 prostate)
81.5 µM: TGI (SNB-75 CNS)
36.5 µM: TGI (KM12 colon)
80.6 µM: TGI (CCRF-CEM leukemia)
77.7 µM: TGI (HCC-2998 colon)
47.3 µM: TGI (UACC-62 melanoma)
38.7 µM: TGI (LOX IMVI melanoma)
49 µM: TGI (HT29 colon)
72.8 µM: TGI (MOLT-4 leukemia)
85.6 µM: TGI (UACC-257 melanoma)
95.4 µM: TGI (IGROV1 ovarian)
32.2 µM: TGI (SK-MEL-5 melanoma)
70.6 µM: TGI (MDA-MB-231 breast)
60.5 µM: TGI (K-562 leukemia)
31 µM: TGI (SR leukemia)
inactive: GI50 (OVCAR-3 ovarian) > 100 µM | GI50 (HOP-92 NSCLC) 14.9 µM | GI50 (CCRF-CEM leukemia) 28.1 µM | GI50 (SW-620 colon) 41.1 µM | GI50 (NCI-H460 lung) 39.7 µM | GI50 (A498 renal) > 100 µM | GI50 (BT-549 breast) 61.6 µM | GI50 (HS 578T breast) 37 µM | GI50 (TK-10 renal) > 100 µM | GI50 (RXF 393 renal) 46 µM | GI50 (NCI-H226 lung) > 100 µM | GI50 (NCI-H522 lung) 79.3 µM | GI50 (NCI/ADR-RES ovarian) > 100 µM | GI50 (U251 CNS) 43.6 µM | GI50 (PC-3 prostate) 26.9 µM | GI50 (K-562 leukemia) 25.2 µM | GI50 (SR leukemia) 0.847 µM | GI50 (SF-295 CNS) 46.6 µM | GI50 (HCC-2998 colon) 25.8 µM | GI50 (MDA-MB-435) 26.7 µM | GI50 (OVCAR-4 ovarian) 58.3 µM | GI50 (A549 NSCLC) > 100 µM | GI50 (HCT-15 colon) 50.9 µM | GI50 (UO-31 renal) 45.8 µM | GI50 (EKVX NSCLC) > 100 µM | GI50 (LOX IMVI melanoma) 18.5 µM | GI50 (NCI-H23 lung) 92 µM | GI50 (T-47D breast) 52.4 µM | GI50 (786-0 renal) 32.3 µM | GI50 (KM12 colon) 18.5 µM | GI50 (ACHN renal) > 100 µM | GI50 (SK-MEL-5 melanoma) 17.1 µM | GI50 (HCT-116 colon) 13.6 µM | GI50 (SK-OV-3 ovarian) > 100 µM | GI50 (UACC-257 melanoma) 31.9 µM | GI50 (MDA-MB-231 breast) 26.3 µM | GI50 (UACC-62 melanoma) 20.9 µM | GI50 (MOLT-4 leukemia) 24.3 µM | GI50 (SF-539 CNS) > 100 µM | GI50 (MCF7 breast) 19.1 µM | GI50 (SK-MEL-28 melanoma) 16.7 µM | GI50 (HL-60(TB) leukemia) 7.81 µM | GI50 (COLO 205 colon) 19.3 µM | GI50 (OVCAR-8 ovarian) > 100 µM | GI50 (HOP-62 NSCLC) 18.7 µM | GI50 (MALME-3M melanoma) 22.6 µM | GI50 (SK-MEL-2 melanoma) > 100 µM | GI50 (SN12C renal) > 100 µM | GI50 (CAKI-1 renal) > 100 µM | GI50 (RPMI-8226 leukemia) 22.6 µM | GI50 (SNB-75 CNS) 25.3 µM | GI50 (SNB-19 CNS) > 100 µM | GI50 (SF-268 CNS) 47.5 µM | GI50 (IGROV1 ovarian) 26.6 µM | GI50 (HT29 colon) 20 µM | GI50 (OVCAR-5 ovarian) > 100 µM | GI50 (DU-145 prostate) 87 µM
61.7 µM: TGI (MALME-3M melanoma)
34.8 µM: TGI (MCF7 breast)
33.3 µM: TGI (HCT-116 colon)
54.4 µM: TGI (HOP-62 NSCLC)
> 100 µM: TGI (OVCAR-3 ovarian) | TGI (HOP-92 NSCLC) | TGI (SW-620 colon) | TGI (NCI-H460 lung) | TGI (A498 renal) | TGI (BT-549 breast) | TGI (HS 578T breast) | TGI (TK-10 renal) | TGI (RXF 393 renal) | TGI (NCI-H226 lung) | TGI (NCI-H522 lung) | TGI (NCI/ADR-RES ovarian) | TGI (U251 CNS) | TGI (SF-295 CNS) | TGI (OVCAR-4 ovarian) | TGI (A549 NSCLC) | TGI (HCT-15 colon) | TGI (UO-31 renal) | TGI (EKVX NSCLC) | TGI (NCI-H23 lung) | TGI (T-47D breast) | TGI (786-0 renal) | TGI (ACHN renal) | TGI (SK-OV-3 ovarian) | TGI (SF-539 CNS) | TGI (OVCAR-8 ovarian) | TGI (SK-MEL-2 melanoma) | TGI (SN12C renal) | TGI (CAKI-1 renal) | TGI (SNB-19 CNS) | TGI (SF-268 CNS) | TGI (OVCAR-5 ovarian) | TGI (DU-145 prostate)
34.6 µM: TGI (SK-MEL-28 melanoma)
30.3 µM: TGI (HL-60(TB) leukemia)
46.5 µM: TGI (RPMI-8226 leukemia)
40.4 µM: TGI (COLO 205 colon)
